From patent US20240238242A1, “EGCG buccal tablet and use thereof” (priority 2023, published 2024)
Several values for one entry are separate records, joined by “and”; a condition that tells them apart may be missing. Equal values may be shown once. Read-outs that look alike come from different tables or passages of the source.

Legend:
[1] = test system: Influenza A H3N2 virus (H3N2); type: cell-based; details: for average inactivation efficiency against virus / inactivation efficiency against the virus: H3N2 virus; for inactivation efficiency against the virus: single experiment
[2] = test system: SARS-CoV-2 BJ-01 virus; assay: In vitro effect of EGCG on SARS-CoV-2 BJ-01 infection (co-incubation, then Vero-E6 cells); type: cell-based; details: 2.18 mM EGCG co-incubated 1, 2, 4 and 8 minutes at room temperature; Vero-E6, 48 hours
Description: In this experimental example, SARS-CoV-2 BJ-01 virus was provided by the Military Veterinary Research Institute, Academy of Military Medical Sciences, Academy of Military Sciences, and its Accession Number at NCBI was MT291831; Vero-E6 cells were provided by the Military Veterinary Research Institute, Academy of Military Medical Sciences, Academy of Military Sciences; and the culture medium was Dulbecco's Modified Eagle Medium, purchased from Thermo Scientific, catalog number: C11995500BT.
The incubation of drug EGCG with SARS-CoV-2 BJ-01 virus in the culture medium was designed according to the time gradient, in which the incubation time was: 1 minute, 2 minutes, 4 minutes, 8 minutes, the EGCG concentration in the incubation system was 1 mg/mL (2.18 mM), and the virus titer in the incubation system was 10^7 TCID50. After incubation, the incubation system was diluted 10 times and used to infect Vero-E6 cells. After 48 hours, the Ct value of the cell supernatant was detected.

For `O=C(O[C@@H]1Cc2c(O)cc(O)cc2O[C@@H]1c1cc(O)c(O)c(O)c1)c1cc(O)c(O)c(O)c1` [EGCG, Epigallocatechin gallate], the “CPE test, virus replication in cell wells (wells 1-10)” value (“CPE test … (wells 1-10)” below) ([1]; 1 mM EGCG + H3N2 virus, 1 minute, first experiment, dilution factor 10^8) was “−”, the “CPE test … (wells 1-10)” value ([1]; 1 mM EGCG + H3N2 virus, 1 minute, second experiment, dilution factor 10^1) was “+” and the “CPE test … (wells 1-10)” value ([1]; 1 mM EGCG + H3N2 virus, 1 minute, second experiment, dilution factor 10^2) was “+”. The “CPE test … (wells 1-10)” value ([1]; 1 mM EGCG + H3N2 virus, 1 minute, second experiment, dilution factor 10^3) was “+”, the “CPE test … (wells 1-10)” value ([1]; 1 mM EGCG + H3N2 virus, 1 minute, second experiment, dilution factor 10^4) was “+ and −” and the “CPE test … (wells 1-10)” value ([1]; 1 mM EGCG + H3N2 virus, 1 minute, second experiment, dilution factor 10^5) was “+ and −”. For the same molecule, the “CPE test … (wells 1-10)” value ([1]; 1 mM EGCG + H3N2 virus, 1 minute, second experiment, dilution factor 10^6) was “−”, the “CPE test … (wells 1-10)” value ([1]; 1 mM EGCG + H3N2 virus, 1 minute, second experiment, dilution factor 10^7) was “−” and the “CPE test … (wells 1-10)” value ([1]; 1 mM EGCG + H3N2 virus, 1 minute, second experiment, dilution factor 10^8) was “−”. For the same molecule, the “CPE test, virus replication in cell wells 1-10” value (“CPE test … in cell wells 1-10” for short) ([1]; 1 mM EGCG + H3N2 virus, 1 minute, third experiment, dilution factor 10^2) was “+”, the “CPE test … in cell wells 1-10” value ([1]; 1 mM EGCG + H3N2 virus, 1 minute, third experiment, dilution factor 10^3) was “+” and the “CPE test … in cell wells 1-10” value ([1]; 1 mM EGCG + H3N2 virus, 1 minute, third experiment, dilution factor 10^4) was “+”. For the same molecule, the “CPE test … in cell wells 1-10” value ([1]; 1 mM EGCG + H3N2 virus, 1 minute, third experiment, dilution factor 10^5) was “− and +”, the “CPE test … in cell wells 1-10” value ([1]; 1 mM EGCG + H3N2 virus, 1 minute, third experiment, dilution factor 10^6) was “−” and the “CPE test … in cell wells 1-10” value ([1]; 1 mM EGCG + H3N2 virus, 1 minute, third experiment, dilution factor 10^7) was “−”. The “CPE test … in cell wells 1-10” value ([1]; 1 mM EGCG + H3N2 virus, 1 minute, third experiment, dilution factor 10^8) was “−”, the “CPE test … in cell wells 1-10” value ([1]; 1 mM EGCG + H3N2 virus, 5 minute, first experiment, dilution factor 10^3) was “− and +” and the “CPE test … in cell wells 1-10” value ([1]; 1 mM EGCG + H3N2 virus, 5 minute, first experiment, dilution factor 10^4) was “+ and −”. For the same molecule, the “CPE test … in cell wells 1-10” value ([1]; 1 mM EGCG + H3N2 virus, 5 minute, first experiment, dilution factor 10^5) was “−”, the “CPE test … in cell wells 1-10” value ([1]; 1 mM EGCG + H3N2 virus, 5 minute, first experiment, dilution factor 10^6) was “−” and the “CPE test … in cell wells 1-10” value ([1]; 1 mM EGCG + H3N2 virus, 5 minute, first experiment, dilution factor 10^7) was “−”. For the same molecule, the “CPE test … in cell wells 1-10” value ([1]; 1 mM EGCG + H3N2 virus, 5 minute, first experiment, dilution factor 10^8) was “−”, the “CPE test … in cell wells 1-10” value ([1]; 1 mM EGCG + H3N2 virus, 5 minute, second experiment, dilution factor 10^3) was “−” and the “CPE test … in cell wells 1-10” value ([1]; 1 mM EGCG + H3N2 virus, 5 minute, second experiment, dilution factor 10^4) was “−”. For the same molecule, the “CPE test … in cell wells 1-10” value ([1]; 1 mM EGCG + H3N2 virus, 5 minute, second experiment, dilution factor 10^5) was “−”, the “CPE test … in cell wells 1-10” value ([1]; 1 mM EGCG + H3N2 virus, 5 minute, second experiment, dilution factor 10^6) was “−” and the “CPE test … in cell wells 1-10” value ([1]; 1 mM EGCG + H3N2 virus, 5 minute, second experiment, dilution factor 10^7) was “−”. For the same molecule, the “CPE test … in cell wells 1-10” value ([1]; 1 mM EGCG + H3N2 virus, 5 minute, second experiment, dilution factor 10^8) was “−”, the “average inactivation efficiency against virus” value (“average inactivation efficiency” below) ([1]; 1 mM EGCG, 1 minute, three experiments) was 61.78% and the “inactivation efficiency against the virus” value ([1]; 1 mM EGCG, 5 minutes) was 99.50% and 99.87%. For the same molecule, the “average inactivation efficiency” value ([1]; 1 mM EGCG, 5 minutes, two experiments) was 99.69%, the “CPE test … (wells 1-10)” value ([1]; 5 mM EGCG + H3N2 virus, 1 minute, first experiment, dilution factor 10^4) was “−” and the “CPE test … (wells 1-10)” value ([1]; 5 mM EGCG + H3N2 virus, 1 minute, first experiment, dilution factor 10^5) was “−”. The “CPE test … (wells 1-10)” value ([1]; 5 mM EGCG + H3N2 virus, 1 minute, first experiment, dilution factor 10^6) was “−”, the “CPE test … (wells 1-10)” value ([1]; 5 mM EGCG + H3N2 virus, 1 minute, first experiment, dilution factor 10^7) was “−” and the “CPE test … (wells 1-10)” value ([1]; 5 mM EGCG + H3N2 virus, 1 minute, first experiment, dilution factor 10^8) was “−”. For the same molecule, the “CPE test … (wells 1-10)” value ([1]; 5 mM EGCG + H3N2 virus, 1 minute, second experiment, dilution factor 10^3) was “+”, the “CPE test … (wells 1-10)” value ([1]; 5 mM EGCG + H3N2 virus, 1 minute, second experiment, dilution factor 10^4) was “−” and the “CPE test … (wells 1-10)” value ([1]; 5 mM EGCG + H3N2 virus, 1 minute, second experiment, dilution factor 10^5) was “−”. For the same molecule, the “CPE test … (wells 1-10)” value ([1]; 5 mM EGCG + H3N2 virus, 1 minute, second experiment, dilution factor 10^6) was “−”, the “CPE test … (wells 1-10)” value ([1]; 5 mM EGCG + H3N2 virus, 1 minute, second experiment, dilution factor 10^7) was “−” and the “CPE test … (wells 1-10)” value ([1]; 5 mM EGCG + H3N2 virus, 1 minute, second experiment, dilution factor 10^8) was “−”. For the same molecule, the “CPE test … in cell wells 1-10” value ([1]; 5 mM EGCG + H3N2 virus, 1 minute, third experiment, dilution factor 10^4) was “−”, the “CPE test … in cell wells 1-10” value ([1]; 5 mM EGCG + H3N2 virus, 1 minute, third experiment, dilution factor 10^5) was “−” and the “CPE test … in cell wells 1-10” value ([1]; 5 mM EGCG + H3N2 virus, 1 minute, third experiment, dilution factor 10^6) was “−”. The “CPE test … in cell wells 1-10” value ([1]; 5 mM EGCG + H3N2 virus, 1 minute, third experiment, dilution factor 10^7) was “−”, the “CPE test … in cell wells 1-10” value ([1]; 5 mM EGCG + H3N2 virus, 1 minute, third experiment, dilution factor 10^8) was “−” and the “CPE test … in cell wells 1-10” value ([1]; 5 mM EGCG + H3N2 virus, 5 minute, first experiment, dilution factor 10^4) was “− and +”. The “CPE test … in cell wells 1-10” value ([1]; 5 mM EGCG + H3N2 virus, 5 minute, first experiment, dilution factor 10^5) was “− and +”, the “CPE test … in cell wells 1-10” value ([1]; 5 mM EGCG + H3N2 virus, 5 minute, first experiment, dilution factor 10^6) was “−” and the “CPE test … in cell wells 1-10” value ([1]; 5 mM EGCG + H3N2 virus, 5 minute, first experiment, dilution factor 10^7) was “−”. For the same molecule, the “CPE test … in cell wells 1-10” value ([1]; 5 mM EGCG + H3N2 virus, 5 minute, first experiment, dilution factor 10^8) was “−”, the “CPE test … in cell wells 1-10” value ([1]; 5 mM EGCG + H3N2 virus, 5 minute, second experiment, dilution factor 10^3) was “+” and the “CPE test … in cell wells 1-10” value ([1]; 5 mM EGCG + H3N2 virus, 5 minute, second experiment, dilution factor 10^4) was “−”. For the same molecule, the “CPE test … in cell wells 1-10” value ([1]; 5 mM EGCG + H3N2 virus, 5 minute, second experiment, dilution factor 10^5) was “−”, the “CPE test … in cell wells 1-10” value ([1]; 5 mM EGCG + H3N2 virus, 5 minute, second experiment, dilution factor 10^6) was “−” and the “CPE test … in cell wells 1-10” value ([1]; 5 mM EGCG + H3N2 virus, 5 minute, second experiment, dilution factor 10^7) was “−”. For the same molecule, the “CPE test … in cell wells 1-10” value ([1]; 5 mM EGCG + H3N2 virus, 5 minute, second experiment, dilution factor 10^8) was “−”, the “inactivation efficiency against the virus” value ([1]; 5 mM EGCG, 1 minute) was 98.74% and 96.84% and the “average inactivation efficiency” value ([1]; 5 mM EGCG, 1 minute, three experiments) was 98.11%. The “inactivation efficiency against the virus” value ([1]; 5 mM EGCG, 5 minutes) was 97.49% and 98.74%, the “average inactivation efficiency” value ([1]; 5 mM EGCG, 5 minutes, two experiments) was 98.32% and the “number of live viruses (virus copy number in cell supernatant)” value [2] was “significantly reduced”.
